Laboratory results published in the NIST ThermoML archive (doi:10.1016/j.jct.2006.05.009).

Columns and labels:
[1] = Molar enthalpy of transition or fusion
[2] = molar heat capacity at constant pressure; conditions: 101.33 kPa, Crystal 2

Cn1c(=O)c2c(ncn2C)n(C)c1=O [caffeine]
Conditions	Molar enthalpy of transition or fusion [kcal/mol]	molar heat capacity at constant pressure [J/K/mol]
[1], Crystal 1	4.75	–
[1], Crystal 2	0.82	–
[2], 80.83 K	–	98.31
[2], 84.15 K	–	101.95
[2], 87.22 K	–	104.62
[2], 90.15 K	–	106.27
[2], 93.05 K	–	109.02
[2], 95.91 K	–	112.23
[2], 98.73 K	–	116.53
[2], 101.49 K	–	119.06
[2], 104.21 K	–	121.47
[2], 106.88 K	–	123.99
[2], 109.98 K	–	125.77
[2], 113.03 K	–	127.49
[2], 115.96 K	–	130.48
[2], 118.81 K	–	132.67
[2], 121.58 K	–	134.84
[2], 124.27 K	–	136.76
[2], 126.89 K	–	139.36
[2], 129.43 K	–	140.97
[2], 131.92 K	–	142.97
[2], 134.34 K	–	144.92
[2], 136.69 K	–	145.99
[2], 138.99 K	–	148.53
[2], 141.24 K	–	149.98
[2], 143.42 K	–	150.47
[2], 145.52 K	–	151.98
[2], 148 K	–	155.83
[2], 150.06 K	–	156.99
[2], 152.08 K	–	157.88
[2], 154.08 K	–	159.38
[2], 156.06 K	–	160.61
[2], 158.01 K	–	161.82
[2], 159.95 K	–	162.55
[2], 161.87 K	–	163.14
[2], 163.77 K	–	164.64
[2], 165.79 K	–	164.91
[2], 168.47 K	–	166.4
[2], 171.41 K	–	166.83
[2], 174.32 K	–	167.9
[2], 177.21 K	–	169.06
[2], 180.03 K	–	169.58
[2], 182.8 K	–	171.5
[2], 185.57 K	–	172.7
[2], 188.3 K	–	174.64
[2], 191 K	–	176.3
[2], 193.71 K	–	178.38
[2], 196.39 K	–	179.3
[2], 199.05 K	–	180.41
[2], 201.7 K	–	181.59
[2], 204.31 K	–	182.99
[2], 206.91 K	–	184.79
[2], 209.47 K	–	186.12
[2], 212.08 K	–	187.01
[2], 214.76 K	–	189.97
[2], 217.47 K	–	191.2
[2], 220.2 K	–	192.68
[2], 222.95 K	–	194.21
[2], 226.26 K	–	195.06
[2], 230.04 K	–	197.34
[2], 233.76 K	–	198.99
[2], 237.43 K	–	200.1
[2], 241.09 K	–	202.07
[2], 244.7 K	–	202.6
[2], 248.28 K	–	203.14
[2], 251.82 K	–	203.17
[2], 255.32 K	–	204.06
[2], 258.78 K	–	205.75
[2], 259.39 K	–	207.72
[2], 262.25 K	–	207.77
[2], 265.07 K	–	209.13
[2], 267.83 K	–	210.94
[2], 270.58 K	–	212.28
[2], 273.31 K	–	213.56
[2], 276.04 K	–	215.35
[2], 278.76 K	–	217.05
[2], 281.49 K	–	217.99
[2], 284.22 K	–	220.07
[2], 286.92 K	–	223.22
[2], 289.58 K	–	223.75
[2], 292.23 K	–	225.69
[2], 294.87 K	–	226.47
[2], 297.52 K	–	227.12
[2], 300.14 K	–	227.17
[2], 302.75 K	–	228.98
[2], 305.33 K	–	230.29
[2], 307.91 K	–	230.71
[2], 310.51 K	–	233.27
[2], 313.09 K	–	234.23
[2], 315.65 K	–	234.61
[2], 318.19 K	–	235.23
[2], 320.86 K	–	237.37
[2], 323.42 K	–	238.29
[2], 325.99 K	–	238.92
[2], 328.63 K	–	240.12
[2], 331.31 K	–	243.07
[2], 333.96 K	–	245.08
[2], 336.61 K	–	246.31
[2], 339.22 K	–	248.21
[2], 341.76 K	–	249.29
[2], 344.27 K	–	251.55
[2], 346.83 K	–	253.2
[2], 349.18 K	–	254.04
[2], 351.69 K	–	255.21
[2], 354.36 K	–	256.94
[2], 357.01 K	–	258.67
[2], 359.66 K	–	260.51
[2], 362.27 K	–	261.86
[2], 364.86 K	–	262.9
[2], 367.44 K	–	264.99
[2], 369.95 K	–	266.24
[2], 372.45 K	–	266.46
[2], 374.91 K	–	267.26
[2], 377.39 K	–	269.44
[2], 379.84 K	–	270.33
[2], 382.28 K	–	271.84
[2], 384.69 K	–	272.71
[2], 387.08 K	–	274.88

Conditions	Triple point temperature [K]
Crystal 1	509
Crystal 2	413.39
